This note sets out measurements from patent publication US6362369B1, “Phthalic acid diamide derivatives fluorine-containing aniline compounds as starting material, agricultural and horticultural insecticides, and a method for application of the insecticides” (Nihon Nohyaku Co., Ltd., priority 1997, dated 2002).

The subject of assay [1] is diamondback moth (Plutella xylostella). Put plainly: Insecticidal effect on diamondback moth (Test Example 1). It counts as in vivo. To be noted: for Insecticidal effect, Test Example 1: diamondback moth; for Insecticidal effect on diamondback moth (Test Example 1), judged grade: mortality judged according to the criterion shown in Test Example 1. The gist of the method: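 Triplicate groups of 10 insects were scored: six days after immersion of oviposited Chinese cabbage seedlings and holding at 25 °C post air-drying, hatched larvae were counted. Mortality derived from these counts and insecticidal effect judged by a set criterion.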

For assay [2], the system named is common cutworm (Spodoptera Litura). The experiment in a line: Insecticidal effect on common cutworm (Test Example 2). It counts as in vivo. The following applies: 500 ppm, eight days after inoculation, 25° C.; for Insecticidal effect, Test Example 2: cabbage leaf immersed; for Insecticidal effect on common cutworm (Test Example 2), judged grade: cabbage leaf dip, second-instar larvae. The procedure:
Insecticidal effect on common cutworm (Spodoptera Litura)
After air-drying, it was placed in a plastic Petri dish with a diameter of 9 cm and inoculated with second-instar larvae of common cutworm, after which the dish was closed and then allowed to stand in a room thermostated at 25° C. Eight days after the inoculation, the dead and alive were counted. The mortality was calculated according to the following equation and the insecticidal effect was judged according to the criterion shown in Test Example 1. The test was carried out with triplicate groups of 10 insects. [formula]

Where [3] appears, read: mortality judged by criterion of Test Example 1.
Where [4] appears, read: common cutworm second-instar larvae.

On to `Cc1cc(I)ccc1NC(=O)c1c(I)cccc1C(=O)NC(C)C` [compound 431], for which, in assay [1] (judged by the mortality criterion of Test Example 1), the “Insecticidal effect, Test Example 1” value was “A (100)”. For the same molecule, the “Insecticidal effect, Test Example 2” value in assay [2] (second-instar larvae of common cutworm) is listed as “A (100)”.
As to `COc1ccc(NC(=O)c2c(I)cccc2C(=O)NC(C)C)c(C)c1C` [compound 451], in assay [1], the “Insecticidal effect on diamondback moth (Test Example 1), judged grade” value (“Insecticidal effect on diamondback moth” below) is recorded as “A (100)”. The “Insecticidal effect on common cutworm (Test Example 2), judged grade” value (“Insecticidal effect on common cutworm” for short) in assay [2] is “A (100)”.
Consider `Cc1cc(Oc2ccc(C(F)(F)F)cn2)ccc1NC(=O)c1c(I)cccc1C(=O)NC(C)C` [compound 460], for which the “Insecticidal effect on diamondback moth” value in assay [1] is reported as “A (100)”. Further, the “Insecticidal effect on common cutworm” value in assay [2] is reported as “B (99-90)”.
Take `CC(C)NC(=O)c1cccc(F)c1C(=O)Nc1ccc(C(F)(F)C(F)(F)C(F)(F)F)cc1` [compound 535]: the “Insecticidal effect on diamondback moth” value in assay [1] was “A (100)”. Moreover, the “Insecticidal effect on common cutworm” value in assay [2] is on record as “A (100)”.
Turning to `Cc1cc(OC(F)(F)C(F)OC(F)(F)F)ccc1NC(=O)c1c(F)cccc1C(=O)NC(C)C` (stereo not drawn) [compound 570], the “Insecticidal effect on diamondback moth” value in assay [1] is on record as “A (100)”. For the same molecule, the “Insecticidal effect on common cutworm” value in assay [2] is “A (100)”.
Consider `Cc1cc(OC(F)F)c(Cl)cc1NC(=O)c1c(F)cccc1C(=O)NC(C)C` [compound 571], for which, in assay [1], the “Insecticidal effect on diamondback moth” value was “A (100)”. Moreover, the “Insecticidal effect on common cutworm” value in assay [2] is recorded as “C (89-80)”.
In the case of `CC(C)NC(=O)c1c(C(=O)Nc2cccc(Cl)c2Cl)cccc1[N+](=O)[O-]` [compound 584], in assay [1], the “Insecticidal effect on diamondback moth” value was “A (100)”. In assay [2], the “Insecticidal effect on common cutworm” value was “D (79-50)”.
For the molecule `CC(C)NC(=O)c1c(C(=O)Nc2ccc(Br)cc2)cccc1[N+](=O)[O-]` [compound 591], the “Insecticidal effect on diamondback moth” value in assay [1] is “A (100)”. Moreover, in assay [2], the “Insecticidal effect on common cutworm” value was “D (79-50)”.
For the molecule `CC(C)NC(=O)c1c(C(=O)Nc2ccc(Cl)cc2Cl)cccc1[N+](=O)[O-]` [compound 633], the “Insecticidal effect on diamondback moth” value in assay [1] is recorded as “A (100)”. In addition, the “Insecticidal effect on common cutworm” value in assay [2] is “D (79-50)”.
As to `CC(C)NC(=O)c1c(C(=O)Nc2c(Cl)cccc2Cl)cccc1[N+](=O)[O-]` [compound 635], the “Insecticidal effect on diamondback moth” value in assay [1] is recorded as “A (100)”. For the same molecule, the “Insecticidal effect on common cutworm” value in assay [2] was “D (79-50)”.
Take `CC(C)NC(=O)c1c(C(=O)Nc2c(F)cccc2F)cccc1[N+](=O)[O-]` [compound 641]: in assay [1], the “Insecticidal effect on diamondback moth” value is listed as “D (79-50)”. In addition, the “Insecticidal effect on common cutworm” value in assay [2] was “D (79-50)”.
In the case of `CC(C)NC(=O)c1c(C(=O)Nc2ccc(Cl)c(Cl)c2Cl)cccc1[N+](=O)[O-]` [compound 644], in assay [1], the “Insecticidal effect on diamondback moth” value is given as “A (100)”. For the same molecule, the “Insecticidal effect on common cutworm” value in assay [2] is “A (100)”.
With `CC(C)NC(=O)c1c(C(=O)Nc2c(F)c(F)c(F)c(F)c2F)cccc1[N+](=O)[O-]` [compound 646], the “Insecticidal effect on diamondback moth” value in assay [1] is recorded as “A (100)”. The “Insecticidal effect on common cutworm” value in assay [2] was “D (79-50)”.
As to `Cc1cc(Cl)ccc1NC(=O)c1cccc([N+](=O)[O-])c1C(=O)NC(C)C` [compound 664, 3-nitro-N^1-(4-chloro-2-methylphenyl)-N^2-isopropyl-phthalic acid diamide], the “Insecticidal effect on diamondback moth” value in assay [1] was “A (100)”. The “Insecticidal effect on common cutworm” value in assay [2] was “A (100)”.
For `CC(C)NC(=O)c1c(C(=O)Nc2ccc(OC(F)F)cc2C(F)(F)F)cccc1[N+](=O)[O-]` [compound 692], the “Insecticidal effect on diamondback moth” value in assay [1] is “A (100)”. The “Insecticidal effect on common cutworm” value in assay [2] was “D (79-50)”.
For the molecule `CC(C)NC(=O)c1c(C(=O)Nc2ccc(OC(F)F)c(C(F)(F)F)c2)cccc1[N+](=O)[O-]` [compound 693], the “Insecticidal effect on diamondback moth” value in assay [1] was “A (100)”. In assay [2], the “Insecticidal effect on common cutworm” value is “A (100)”.
With `Cc1cc([N+](=O)[O-])ccc1NC(=O)c1cccc([N+](=O)[O-])c1C(=O)NC(C)C` [compound 706], in assay [1], the “Insecticidal effect on diamondback moth” value was “A (100)”. Moreover, in assay [2], the “Insecticidal effect on common cutworm” value is “A (100)”.
For the molecule `Cc1c(NC(=O)c2cccc([N+](=O)[O-])c2C(=O)NC(C)C)ccc([N+](=O)[O-])c1C` [compound 709], the “Insecticidal effect on diamondback moth” value in assay [1] is reported as “A (100)”. Also, in assay [2], the “Insecticidal effect on common cutworm” value was “A (100)”.
Regarding `CSc1ccc(NC(=O)c2cccc([N+](=O)[O-])c2C(=O)NC(C)C)c(C)c1` [compound 719], the “Insecticidal effect on diamondback moth” value in assay [1] was “A (100)”. Besides, the “Insecticidal effect on common cutworm” value in assay [2] is “D (79-50)”.
The like results for `Cc1cc(Oc2c(F)c(F)c(F)c(F)c2F)ccc1NC(=O)c1cccc([N+](=O)[O-])c1C(=O)NC(C)C` [compound 725] were, in that order, “A (100)” and “A (100)”.
For the molecule `Cc1ccc(Cl)cc1NC(=O)c1cccc([N+](=O)[O-])c1C(=O)NCC(C)C` [compound 831], the “Insecticidal effect on diamondback moth” value in assay [1] is “D (79-50)”. Besides, the “Insecticidal effect on common cutworm” value in assay [2] is “D (79-50)”.
For `Cc1ccc(Cl)cc1NC(=O)c1ccccc1C(=O)NC(C)(C)C` [compound 841], in assay [1], the “Insecticidal effect on diamondback moth” value is “A (100)”. Besides, the “Insecticidal effect on common cutworm” value in assay [2] is recorded as “D (79-50)”.
With `Cc1ccc(Cl)cc1NC(=O)c1cccc([N+](=O)[O-])c1C(=O)NC1CCCC1` [compound 858], the “Insecticidal effect on diamondback moth” value in assay [1] is “C (89-80)”. Besides, in assay [2], the “Insecticidal effect on common cutworm” value is on record as “A (100)”.
Turning to `C#CCNC(=O)c1c(C(=O)Nc2cc(Cl)ccc2C)cccc1[N+](=O)[O-]` [compound 869], the “Insecticidal effect on diamondback moth” value in assay [1] was “A (100)”. Moreover, in assay [2], the “Insecticidal effect on common cutworm” value is “D (79-50)”.
Consider `O=C(Nc1ccc(C(F)(F)F)cc1)c1ccccc1C(=O)N1CCCC1` [compound 881], for which the “Insecticidal effect on diamondback moth” value in assay [1] is listed as “A (100)”. For the same molecule, the “Insecticidal effect on common cutworm” value in assay [2] is “D (79-50)”.
Turning to `Cc1cc(Cl)ccc1NC(=O)c1c(Cl)cccc1C(=O)NC(C)(C)C` [compound 938], the “Insecticidal effect on diamondback moth” value in assay [1] was “A (100)”. For the same molecule, in assay [2], the “Insecticidal effect on common cutworm” value is given as “A (100)”.
On to `CC(C)NC(=O)c1c(I)cccc1C(=O)Nc1ccc(I)cc1C(C)C` [compound 965], for which the “Insecticidal effect, Test Example 1” value in assay [1] (setting [3]) is given as “A (100)”. Further, in assay [2] (setting [4]), the “Insecticidal effect, Test Example 2” value is on record as “C (89-80)”.
With `CC(C)(C)NC(=O)c1ccccc1C(=O)Nc1ccc(C(O)(C(F)(F)F)C(F)(F)F)cc1` [compound 1052], the “Insecticidal effect, Test Example 1” value in assay [1] (setting [3]) is given as “A (100)”. Further, the “Insecticidal effect, Test Example 2” value in assay [2] (setting [4]) is “A (100)”.
Turning to `CC(C)(C)NC(=O)c1c(I)cccc1C(=O)Nc1ccc2c(c1)OC(F)(F)C(F)O2` (stereo not drawn) [compound 1166], the “Insecticidal effect, Test Example 1” value in assay [1] (setting [3]) was “A (100)”. Further, in assay [2] (setting [4]), the “Insecticidal effect, Test Example 2” value is “A (100)”.
As to `CCN(CC)C(=O)c1c(I)cccc1C(=O)N(CC)c1ccc(C(F)(F)C(F)(F)F)cc1C` [compound 1179], the “Insecticidal effect, Test Example 1” value in assay [1] (setting [3]) is recorded as “A (100)”. In addition, the “Insecticidal effect, Test Example 2” value in assay [2] (setting [4]) is reported as “A (100)”.
As to `Cc1cc(OC(F)(F)F)ccc1NC(=O)c1cccc(C(F)(F)F)c1C(=O)NC(C)C` [compound 1183], in assay [1] (setting [3]), the “Insecticidal effect, Test Example 1” value is listed as “A (100)”. In assay [2] (setting [4]), the “Insecticidal effect, Test Example 2” value was “A (100)”.
As to `Cc1cc(C(F)(F)C(F)(F)F)ccc1NC(=O)c1cccc(C(F)(F)F)c1C(=O)NC(C)C` [compound 1184], the “Insecticidal effect, Test Example 1” value in assay [1] (setting [3]) is “A (100)”. Further, the “Insecticidal effect, Test Example 2” value in assay [2] (setting [4]) is reported as “A (100)”.
Take `CCN(CC)C(=O)c1c(C(=O)Nc2ccc(OC(F)(F)F)cc2C)cccc1C(F)(F)F` [compound 1185]: the “Insecticidal effect, Test Example 1” value in assay [1] (setting [3]) is “A (100)”. In addition, the “Insecticidal effect, Test Example 2” value in assay [2] (setting [4]) was “C (89-80)”.
The like results for `CCN(CC)C(=O)c1c(C(=O)Nc2ccc(C(F)(F)C(F)(F)F)cc2C)cccc1C(F)(F)F` [compound 1186] were, in that order, “A (100)” and “A (100)”.
With `CC(C)NC(=O)c1c(Cl)cccc1C(=O)Nc1ccc(OC(F)(F)F)cc1F` [compound 1187], the “Insecticidal effect, Test Example 1” value in assay [1] (setting [3]) is listed as “A (100)”. In assay [2] (setting [4]), the “Insecticidal effect, Test Example 2” value was “A (100)”.
With `CC(C)NC(=O)c1c(I)cccc1C(=O)Nc1ccc(OC(F)(F)F)cc1F` [compound 1188], the “Insecticidal effect, Test Example 1” value in assay [1] (setting [3]) is reported as “A (100)”. Besides, the “Insecticidal effect, Test Example 2” value in assay [2] (setting [4]) is “A (100)”.
Take `CC(C)(C)NC(=O)c1c(I)cccc1C(=O)Nc1ccc(OC(F)(F)F)cc1F` [compound 1189]: the “Insecticidal effect, Test Example 1” value in assay [1] (setting [3]) is recorded as “A (100)”. In addition, the “Insecticidal effect, Test Example 2” value in assay [2] (setting [4]) is on record as “A (100)”.
For the molecule `Cc1cc(OC(F)(F)F)ccc1NC(=O)c1cccc(OC(F)(F)F)c1C(=O)NC(C)C` [compound 1233], in assay [1] (setting [3]), the “Insecticidal effect, Test Example 1” value was “A (100)”. Also, the “Insecticidal effect, Test Example 2” value in assay [2] (setting [4]) was “A (100)”.
On to `Cc1cc(OC(F)(F)F)ccc1NC(=O)c1cccc(OC(F)(F)F)c1C(=O)NC(C)(C)C` [compound 1234], for which the “Insecticidal effect, Test Example 1” value in assay [1] (setting [3]) is “A (100)”. In addition, the “Insecticidal effect, Test Example 2” value in assay [2] (setting [4]) is listed as “A (100)”.
